Structures can show the parent of a compound that is named as a salt.
With `CCN(C(=O)N(CC)c1ccccc1)c1ccccc1` [1,3-diethyl-1,3-diphenylurea] the flash point was 150.00 °C.
With `COc1ccc(O)c(C(C)(C)C)c1.COc1ccc(O)cc1C(C)(C)C` [2-tert-butyl-4-methoxyphenol;3-tert-butyl-4-methoxyphenol] the flash point was 113.00 °C.
`CCOP(=S)(OCC)Oc1nc(Cl)c(Cl)cc1Cl` gave a flash point of 28.00 °C.
In the case of `CC1CCCCN1CCCOC(=O)c1ccc(Cl)c(Cl)c1` (stereo not drawn) [3-(2-methylpiperidin-1-yl)propyl 3,4-dichlorobenzoate], the flash point is reported as 71.00 °C.
Molecule `Oc1cccc2c(O)cccc12` [naphthalene-1,5-diol] has a flash point of 252.00 °C.
With `CCCCOC(=O)CCCCCCCCC(=O)OCCCC` [dibutyl decanedioate] the flash point was 178.00 °C.
With `ClCCOCOCCCl` [1-chloro-2-(2-chloroethoxymethoxy)ethane] the flash point was 110.00 °C.
Work on `CCCCCCCCC1CO1` (stereo not drawn) [2-octyloxirane] yielded a flash point of 78.00 °C.
For `CCCC(=O)OC` [methyl butanoate], the flash point was 14.00 °C.
`Nc1ccc(Cl)cc1Cl` [2,4-dichloroaniline] gave a flash point of 115.00 °C.
Molecule `C=CCOC(Cn1ccnc1)c1ccc(Cl)cc1Cl` (stereo not drawn) [1-[2-(2,4-dichlorophenyl)-2-prop-2-enoxyethyl]imidazole] has a flash point of 192.00 °C.
Molecule `Fc1ccccc1` [fluorobenzene] has a flash point of -15.00 °C.
`CCCCCOC(=O)c1ccccc1C(=O)OCCCCC` [dipentyl benzene-1,2-dicarboxylate] gave a flash point of 181.00 °C.
`Cc1ccc(O)cc1` [4-methylphenol] showed a flash point of 86.00 °C.
`CC(=O)OCCC(C)C` [3-methylbutyl acetate] gave a flash point of 25.00 °C.
`Cc1cccc(C#N)c1` [3-methylbenzonitrile] showed a flash point of 87.00 °C.
`CCI` [iodoethane] showed a flash point of 61.00 °C.
Work on `Clc1cccc2ccccc12` [1-chloronaphthalene] yielded a flash point of 121.00 °C.
For `Oc1cc(Cl)c(Cl)cc1Cl` [2,4,5-trichlorophenol], the flash point was 133.00 °C.
For `CC(C)CC(C)N` (stereo not drawn) [4-methylpentan-2-amine], the flash point was 13.00 °C.
With `Cc1ccc(N)cc1C` [3,4-dimethylaniline] the flash point was 98.00 °C.
`C[N+](=O)[O-]` [nitromethane] gave a flash point of 35.00 °C.
With `Cc1ccc([N+](=O)[O-])c(C)c1` [2,4-dimethyl-1-nitrobenzene] the flash point was 107.00 °C.
With `Cc1ccc(N=C=O)cc1N=C=O` [2,4-diisocyanato-1-methylbenzene] the flash point was 132.00 °C.
`Cc1cccc(C)c1[N+](=O)[O-]` [1,3-dimethyl-2-nitrobenzene] showed a flash point of 88.00 °C.
Molecule `COc1cc(-c2ccc(N)c(OC)c2)ccc1N` [4-(4-amino-3-methoxyphenyl)-2-methoxyaniline] has a flash point of 206.00 °C.
For `CC(C)CC(O)CC(C)C` [2,6-dimethylheptan-4-ol], the flash point was 74.00 °C.
With `C=CC=C` [buta-1,3-diene] the flash point was -76.00 °C.
In the case of `O=[N+]([O-])c1ccc(Cl)cc1` [1-chloro-4-nitrobenzene], the flash point is reported as 110.00 °C.
Molecule `CC(=O)CCC=C(C)C` [6-methylhept-5-en-2-one] has a flash point of 57.00 °C.
`COC(C)=O` [methyl acetate] showed a flash point of -10.00 °C.
With `CC12CCC(CC1=O)C2(C)C` (stereo not drawn) [1,7,7-trimethylbicyclo[2.2.1]heptan-2-one] the flash point was 66.00 °C.
Molecule `CCc1ccccc1` [ethylbenzene] has a flash point of 15.00 °C.
With `CCCCCCCCCCCCCCCCCC(=O)OCCO` [2-hydroxyethyl octadecanoate] the flash point was 260.00 °C.
With `C=COCC(C)C` [1-ethenoxy-2-methylpropane] the flash point was -9.00 °C.
`Cc1ccc(N)cc1N` [4-methylbenzene-1,3-diamine] gave a flash point of 149.00 °C.
Molecule `CC/C=C/C#N` [(E)-pent-2-enenitrile] has a flash point of 23.00 °C.
In the case of `CC(O)CC(C)(C)O` (stereo not drawn) [2-methylpentane-2,4-diol], the flash point is reported as 93.00 °C.
In the case of `CCCc1ccccc1` [propylbenzene], the flash point is reported as 48.00 °C.
With `[CH3][Hg][CH3]` [dimethylmercury] the flash point was 5.00 °C.
`CC(C)[CH2][Al]([CH2]C(C)C)[CH2]C(C)C` [tris(2-methylpropyl)alumane] showed a flash point of -23.00 °C.
Molecule `COc1ccc(C(=O)c2ccccc2)c(O)c1` [(2-hydroxy-4-methoxyphenyl)-phenylmethanone] has a flash point of 100.00 °C.
In the case of `Cc1cc(C)c(C)c(C)c1` [1,2,3,5-tetramethylbenzene], the flash point is reported as 63.00 °C.
Work on `CCOCCC(=O)OCC` [ethyl 3-ethoxypropanoate] yielded a flash point of 59.00 °C.
With `Oc1ccc(Cl)cc1Cl` [2,4-dichlorophenol] the flash point was 114.00 °C.
`O=C(O)CC(O)(CC(=O)O)C(=O)O` [2-hydroxypropane-1,2,3-tricarboxylic acid] showed a flash point of 100.00 °C.
Molecule `C=CN1CCCC1=O` [1-ethenylpyrrolidin-2-one] has a flash point of 93.00 °C.
Work on `C=CC=CC` [penta-1,3-diene] yielded a flash point of -28.00 °C.
`C1=CCCCC1` [cyclohexene] showed a flash point of -12.00 °C.
In the case of `C=CC(=O)OCCN(C)C` [2-(dimethylamino)ethyl prop-2-enoate], the flash point is reported as 29.00 °C.
Molecule `CC(C)(C)CCCCCC(=O)O` [7,7-dimethyloctanoic acid] has a flash point of 94.00 °C.
`CCCCCCOC(=O)CCCCCCCC(=O)OCCCCCC` [dihexyl nonanedioate] gave a flash point of 204.00 °C.
Molecule `C1=CC(c2ccc(C3CC=CCC3)cc2)CCC1` (stereo not drawn) [1-cyclohex-2-en-1-yl-4-cyclohex-3-en-1-ylbenzene] has a flash point of 157.00 °C.
`CCCCCOC(=O)CC` [pentyl propanoate] showed a flash point of 41.00 °C.
With `NC(=O)CCl` [2-chloroacetamide] the flash point was 170.00 °C.
`CCC(C)c1ccccc1O` (stereo not drawn) [2-butan-2-ylphenol] showed a flash point of 112.00 °C.
In the case of `c1ccc(-c2ccccc2)cc1.c1ccc(Oc2ccccc2)cc1` [1,1'-biphenyl;phenoxybenzene], the flash point is reported as 124.00 °C.
With `C=Cc1ccc(C)cc1.C=Cc1cccc(C)c1.C=Cc1ccccc1C` the flash point was 52.00 °C.
`Cc1cccc(F)c1` [1-fluoro-3-methylbenzene] showed a flash point of 9.00 °C.
`CCCCC(CC)CN` (stereo not drawn) [2-ethylhexan-1-amine] showed a flash point of 60.00 °C.
Molecule `C=CCCCCCC` [oct-1-ene] has a flash point of 21.00 °C.
`C=O.O=C=Nc1ccccc1` [formaldehyde;isocyanatobenzene] gave a flash point of 218.00 °C.
Molecule `O=C(Nc1cccc(Cl)c1)OCC#CCCl` [4-chlorobut-2-ynyl N-(3-chlorophenyl)carbamate] has a flash point of 50.00 °C.
Molecule `Cc1ccccn1` [2-methylpyridine] has a flash point of 36.00 °C.
Molecule `ClNc1ccccc1` [N-chloroaniline] has a flash point of 108.00 °C.
Molecule `COC(=O)C(C)Oc1ccc(Oc2ccc(Cl)cc2Cl)cc1` (stereo not drawn) [methyl 2-[4-(2,4-dichlorophenoxy)phenoxy]propanoate] has a flash point of 38.00 °C.
`CSC(C)(C)/C=N/O` [(NE)-N-(2-methyl-2-methylsulfanylpropylidene)hydroxylamine] gave a flash point of 118.00 °C.
With `OCC1CCC(CO)CC1` (stereo not drawn) [[4-(hydroxymethyl)cyclohexyl]methanol] the flash point was 166.00 °C.
`COP(=S)(OC)Oc1ccc(C#N)cc1` [4-dimethoxyphosphinothioyloxybenzonitrile] showed a flash point of 104.00 °C.
`FC(F)(F)c1ccc(Cl)c(Cl)c1` [1,2-dichloro-4-(trifluoromethyl)benzene] gave a flash point of 65.00 °C.
Work on `C=C(C)C(=O)OCCCCCCCC` [octyl 2-methylprop-2-enoate] yielded a flash point of 91.00 °C.
For `C=C(C)C` [2-methylprop-1-ene], the flash point was -76.00 °C.
Work on `CCOC(=O)NCCOc1ccc(Oc2ccccc2)cc1` [ethyl N-[2-(4-phenoxyphenoxy)ethyl]carbamate] yielded a flash point of 224.00 °C.
`CCCCCCCC(=O)O` [octanoic acid] gave a flash point of 110.00 °C.
Work on `CCCCCCCCCCCCCCCCCC[Si](Cl)(Cl)Cl` [trichloro(octadecyl)silane] yielded a flash point of 89.00 °C.
`CCOC(=O)Cc1ccccc1` [ethyl 2-phenylacetate] gave a flash point of 99.00 °C.
Molecule `CC(C)CCCCCCOC(=O)C1CCCCC1C(=O)OCCCCCCC(C)C` (stereo not drawn) [bis(7-methyloctyl) cyclohexane-1,2-dicarboxylate] has a flash point of 224.00 °C.
Molecule `COC(C)(C)CC(C)=O` [4-methoxy-4-methylpentan-2-one] has a flash point of 61.00 °C.
For `O=CC1CCC=CO1` (stereo not drawn) [3,4-dihydro-2H-pyran-2-carbaldehyde], the flash point was 48.00 °C.
In the case of `C=COC` [methoxyethene], the flash point is reported as -56.00 °C.
In the case of `C=CC(=O)OC` [methyl prop-2-enoate], the flash point is reported as 7.00 °C.
In the case of `O=C=NC1CCCCC1` [isocyanatocyclohexane], the flash point is reported as 49.00 °C.
Molecule `CCc1ccccc1CC` [1,2-diethylbenzene] has a flash point of 57.00 °C.
For `CCCC(=O)Cl` [butanoyl chloride], the flash point was 22.00 °C.
`CCCCCCCS` [heptane-1-thiol] gave a flash point of 46.00 °C.
`CCCCCO[N+](=O)[O-]` [pentyl nitrate] showed a flash point of 49.00 °C.
Work on `Cc1cc(C(C)(C)C)c(O)c(C(C)(C)C)c1` [2,6-ditert-butyl-4-methylphenol] yielded a flash point of 127.00 °C.
With `COC(=O)C(Cl)Cl` [methyl 2,2-dichloroacetate] the flash point was 80.00 °C.
In the case of `CC(C)OC=O` [propan-2-yl formate], the flash point is reported as -6.00 °C.
Work on `C=C(C)C(=O)OCCC` [propyl 2-methylprop-2-enoate] yielded a flash point of 30.00 °C.
Molecule `CCCCC(CC)CNCC(CC)CCCC` (stereo not drawn) [2-ethyl-N-(2-ethylhexyl)hexan-1-amine] has a flash point of 132.00 °C.
For `CCCCCCS` [hexane-1-thiol], the flash point was 20.00 °C.
With `CCCCCCCCC(=O)O` [nonanoic acid] the flash point was 133.00 °C.
With `CCOC` [methoxyethane] the flash point was -37.00 °C.
Work on `CCCCOC(=O)C(C)O` (stereo not drawn) [butyl 2-hydroxypropanoate] yielded a flash point of 71.00 °C.
Work on `CC(C)CCCCCCCO` [8-methylnonan-1-ol] yielded a flash point of 104.00 °C.
`CC1CCCCC1=O` (stereo not drawn) [2-methylcyclohexan-1-one] showed a flash point of 48.00 °C.
In the case of `CC(C)(C)CO` [2,2-dimethylpropan-1-ol], the flash point is reported as 37.00 °C.
